In patent US20220220135A1 (BAR-ILAN UNIVERSITY, priority 2019, published 2022):
Where two headings read alike, the source gives them in different places.

How the values were obtained:
[1] = biological target: T1, NPP1 (Homo sapiens, UniProt P22413); experiment: Stability to hydrolysis by human NPP1; type: in vitro ADME; details: analogue 100 μM; activity with 100 μM ATP = 100%
T1 sequence (P22413 1-925): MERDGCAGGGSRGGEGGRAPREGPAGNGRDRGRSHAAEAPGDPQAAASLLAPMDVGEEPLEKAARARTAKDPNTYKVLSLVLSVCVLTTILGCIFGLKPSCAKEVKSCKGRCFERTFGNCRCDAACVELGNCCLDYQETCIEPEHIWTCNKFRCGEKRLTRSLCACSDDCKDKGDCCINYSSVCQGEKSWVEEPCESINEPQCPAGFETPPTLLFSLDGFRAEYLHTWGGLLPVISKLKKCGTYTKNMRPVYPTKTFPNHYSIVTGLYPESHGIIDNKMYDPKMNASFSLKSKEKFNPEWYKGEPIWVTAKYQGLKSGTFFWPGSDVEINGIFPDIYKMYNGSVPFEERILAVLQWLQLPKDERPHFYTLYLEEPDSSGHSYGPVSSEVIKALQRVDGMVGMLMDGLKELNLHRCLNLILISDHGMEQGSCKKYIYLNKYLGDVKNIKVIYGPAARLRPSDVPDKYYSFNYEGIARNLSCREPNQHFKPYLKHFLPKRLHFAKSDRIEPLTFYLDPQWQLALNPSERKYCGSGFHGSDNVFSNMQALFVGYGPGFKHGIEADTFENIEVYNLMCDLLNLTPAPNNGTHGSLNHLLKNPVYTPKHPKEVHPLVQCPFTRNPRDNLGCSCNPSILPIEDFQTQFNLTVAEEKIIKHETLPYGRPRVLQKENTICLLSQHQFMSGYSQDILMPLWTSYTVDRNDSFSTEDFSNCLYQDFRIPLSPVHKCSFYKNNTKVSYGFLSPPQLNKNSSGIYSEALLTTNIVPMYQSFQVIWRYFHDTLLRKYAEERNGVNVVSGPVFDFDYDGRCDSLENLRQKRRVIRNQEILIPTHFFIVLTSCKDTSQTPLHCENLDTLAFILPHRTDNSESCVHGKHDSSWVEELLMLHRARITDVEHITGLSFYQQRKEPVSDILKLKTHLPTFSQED
Description: Uridine 5′-Pα,α-phosphorodithioate analogues, 9-12, were tested for their stability to degradation by NPP1 and NTPDases. These enzymes are involved in the metabolism of extracellular nucleotides. Analogues 9-12 were not hydrolyzed by hNPP1 (Table 2). […] Analogue 10 was hydrolyzed by hNTPDase1, -2 and -3 at 30-39% the rate of ATP and was slightly hydrolyzed by human NTPDase8 at 16% the rate of ATP.
Analogues 9-12 were incubated in the presence of the indicated ectonucleotidase at a concentration of 100 μM. The activity with 100 μM ATP was set as 100%, which was 329±108, 302±34, 263±51, 195±76 nmol of Pi·min−1·mg of protein−1 for NTPDase1, -2, -3 and -8, respectively, and 34±7 nmol for NPP1. Data presented are the mean±SEM of results from two experiments.

[2] = biological target: P2Y6R (Homo sapiens, UniProt Q15077); experiment: P2Y6R agonist activity, inositol-1-phosphate (IP1) accumulation; type: cell-based; design: expressed in transfected cells; host or cells: AD293 cells; details: vs. UDP
Chain of P2Y6R (Q15077 whole entry): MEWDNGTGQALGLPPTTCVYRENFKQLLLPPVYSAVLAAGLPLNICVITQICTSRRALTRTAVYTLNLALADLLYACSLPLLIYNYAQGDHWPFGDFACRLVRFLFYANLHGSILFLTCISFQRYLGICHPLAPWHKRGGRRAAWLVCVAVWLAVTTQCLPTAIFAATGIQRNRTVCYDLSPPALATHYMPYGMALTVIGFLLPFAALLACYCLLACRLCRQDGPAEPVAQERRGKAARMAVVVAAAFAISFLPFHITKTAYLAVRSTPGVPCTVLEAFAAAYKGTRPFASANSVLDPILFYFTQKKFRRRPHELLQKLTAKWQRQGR
Source text: FIG. 3: P2Y6R agonist activity of analogues 9-12 vs. UDP determined by measuring the production of inositol-1-phosphate (IP1);

[3] = biological target: T2, NTPDase2 (Homo sapiens, UniProt Q9Y5L3); experiment: Inhibition of ATPase activity of human NTPDase2; type: biochemical; details: analogue at 100 μM; ATP 100 μM as substrate
T2 sequence (Q9Y5L3 1-495): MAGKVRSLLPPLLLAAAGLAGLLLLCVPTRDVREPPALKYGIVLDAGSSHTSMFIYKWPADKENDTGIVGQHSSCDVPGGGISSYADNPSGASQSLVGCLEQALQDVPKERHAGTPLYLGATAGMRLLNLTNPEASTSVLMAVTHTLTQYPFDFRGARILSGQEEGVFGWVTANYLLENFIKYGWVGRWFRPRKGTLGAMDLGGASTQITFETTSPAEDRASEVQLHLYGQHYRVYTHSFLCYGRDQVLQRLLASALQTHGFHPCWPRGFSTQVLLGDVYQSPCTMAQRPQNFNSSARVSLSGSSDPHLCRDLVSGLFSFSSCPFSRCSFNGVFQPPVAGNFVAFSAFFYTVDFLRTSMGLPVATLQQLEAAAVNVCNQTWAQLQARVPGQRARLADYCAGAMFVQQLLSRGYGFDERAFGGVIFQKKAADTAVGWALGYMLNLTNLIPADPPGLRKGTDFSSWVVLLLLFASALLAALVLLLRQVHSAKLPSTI
Description: (§1) FIG. 2: Inhibition of NTPDases and NPPs by analogues 9-12 using as substrates ATP (100 μM) for NTPDase1,2,3,8 and pNP-TMP (100 μM) for NPP1,3 (Panel A); and ATP (100 μM) was used as the substrate for NPP1 (Panel B);
(§2) At least 2 independent experiments were performed. In panel A, the activity with 100 μM ATP was set as 100%, which was 287±31, 395±67, 278±22, 119±26 nmol of Pi·min−1·mg of protein−1 for human NTPDase1, -2, -3 and -8, respectively, and the activity with 100 μM pNP-TMP was set as 100% which was 67±5, 21±1 nmol of p-nitrophenol·min−1·mg of protein−1 for human NPP1 and NPP3, respectively. In panel B, the activity with 100 μM ATP was set as 100% which was 34±7 nmol of PPi·min−1·mg of protein−1 for NPP1.

[4] = biological target: T1, NPP1; experiment: Inhibition of human NPP1, pNP-TMP as substrate (analogues 9-12); type: biochemical
Description: as §1
Analogues 9-12 were evaluated for their ability to inhibit human NPP1.
as §2

[5] = Stability to air-oxidation by 31P-NMR; type: physicochemical; details: aqueous solution, constant air flow, RT, 3 weeks
Source text: To evaluate the chemical stability of uridine-5′-Pα,α-dithiophosphate analogues, we measured by 31P-NMR the time-dependent percentage of the analogues remaining under basic and acidic conditions, and due to air-oxidation.
An aqueous solution of 10 was subjected to a constant air flow.

[6] = analogue at 100 μM, pNP-TMP 100 μM as substrate
[7] = pNP-TMP as a substrate, mean±SEM
[8] = pNP-TMP as a substrate, mean±SEM, read-out: Ki (μM), NPP1 inhibition

Compound	Relative activity (%) ± SEM of ATP hydrolysis, NPP1 [1]	P2Y6-R agonist activity (IP1 accumulation) [2]	inhibition of human NTPDase2 [3]	inhibition at 100 µM [4, 6]	IC50 [4, 7]	Ki [4, 8]	stability to air-oxidation [5]	inhibition of human NPP1 [4, 6]	Ki ([4]; pNP-TMP as the substrate, read-out: Ki, NPP1)
O=c1ccn([C@@H]2O[C@H](COP(=S)(S)OP(=O)(O)OP(=O)(O)O)[C@@H](O)[C@H]2O)c(=O)[nH]1 (some centres unmarked) [Analogue 10]	0%	limited agonist activities	no inhibition	100%	1.2 ± 0.1 µM	0.24 ± 0.02 µM	no new signals		
O=c1ccn([C@@H]2O[C@H](COP(=S)(S)OP(=O)(O)OP(=O)(O)OP(=S)(S)OC[C@H]3O[C@@H](n4ccc(=O)[nH]c4=O)[C@H](O)[C@@H]3O)[C@@H](O)[C@H]2O)c(=O)[nH]1 (some centres unmarked) [Analogue 12]	0%	limited agonist activities	selective to NPP1		0.125 ± 0.004 µM		completely resistant	effectively blocked	0.027 µM
O=c1ccn([C@@H]2O[C@H](COP(=S)(S)OP(=O)(O)CP(=O)(O)O)[C@@H](O)[C@H]2O)c(=O)[nH]1 (some centres unmarked) [Analogue 11]	0%	devoid of any P2Y6—R activity	negligible effects		4.3 ± 0.1 µM	1.11 ± 0.19 µM	complete stability		
